Test results reported in ChEMBL document CHEMBL4308841, “Synthesis, in vitro antiproliferative activity, and kinase inhibitory effects of pyrazole-containing diarylureas and diarylamides” (Eur J Med Chem, 2018).

What was measured:
SW-620 = test: Growth inhibition of human SW620 cells assessed as cell growth at 100 uM incubated for 48 hrs by sulforhodamine B assay relative to control; assay type: functional; conditions: SW-620, 48 h, read-out: Activity
HT-29 [1] = test: Growth inhibition of human HT-29 cells assessed as cell growth at 100 uM incubated for 48 hrs by sulforhodamine B assay relative to control; assay type: functional; conditions: HT-29, 48 h, read-out: Activity
HCC 2998 [2] = test: Growth inhibition of human HCC2998 cells assessed as cell growth at 0.1 uM incubated for 48 hrs by sulforhodamine B assay relative to control; assay type: functional; conditions: HCC 2998, 48 h, read-out: Activity
786-0 [3] = test: Growth inhibition of human 786-0 cells assessed as cell growth at 0.01 uM incubated for 48 hrs by sulforhodamine B assay relative to control; assay type: functional; conditions: 786-0, 48 h, read-out: Activity
PC-3 = test: Growth inhibition of human PC3 cells assessed as cell growth at 100 uM incubated for 48 hrs by sulforhodamine B assay relative to control; assay type: functional; conditions: PC-3, 48 h, read-out: Activity
ACHN = test: Growth inhibition of human ACHN cells assessed as cell growth at 100 uM incubated for 48 hrs by sulforhodamine B assay relative to control; assay type: functional; conditions: read-out: Activity
NCI-H23 = test: Growth inhibition of human NCI-H23 cells assessed as cell growth at 0.1 uM incubated for 48 hrs by sulforhodamine B assay relative to control; assay type: functional; conditions: NCI-H23, 48 h, read-out: Activity
A498 = test: Growth inhibition of human A498 cells assessed as cell growth at 0.1 uM incubated for 48 hrs by sulforhodamine B assay relative to control; assay type: functional; conditions: A498, 48 h, read-out: Activity
HCC 2998 [4] = test: Growth inhibition of human HCC2998 cells incubated for 48 hrs by sulforhodamine B assay; assay type: functional, cell-based; conditions: HCC 2998, 48 h
786-0 [5] = test: Growth inhibition of human 786-0 cells assessed as cell growth at 1 uM incubated for 48 hrs by sulforhodamine B assay relative to control; assay type: functional; conditions: 786-0, 48 h, read-out: Activity
SK-MEL-5 = test: Growth inhibition of human SK-MEL-5 cells assessed as cell growth at 1 uM incubated for 48 hrs by sulforhodamine B assay relative to control; assay type: functional; conditions: SK-MEL-5, 48 h, read-out: Activity
SK-OV-3 = test: Growth inhibition of human SKOV3 cells assessed as cell growth at 0.1 uM incubated for 48 hrs by sulforhodamine B assay relative to control; assay type: functional; conditions: SK-OV-3, 48 h, read-out: Activity
COLO 205 = test: Growth inhibition of human COLO205 cells assessed as cell growth at 100 uM incubated for 48 hrs by sulforhodamine B assay relative to control; assay type: functional; conditions: COLO 205, 48 h, read-out: Activity
Malme-3M = test: Growth inhibition of human MALME-3M cells assessed as cell growth at 1 uM incubated for 48 hrs by sulforhodamine B assay relative to control; assay type: functional; conditions: read-out: Activity
UACC-62 = test: Growth inhibition of human UACC62 cells incubated for 48 hrs by sulforhodamine B assay; assay type: functional, cell-based; conditions: UACC-62, 48 h
SF-268 = test: Growth inhibition of human SF268 cells incubated for 48 hrs by sulforhodamine B assay; assay type: functional, cell-based; conditions: SF-268, 48 h
UACC-257 = test: Growth inhibition of human UACC257 cells assessed as cell growth at 100 uM incubated for 48 hrs by sulforhodamine B assay relative to control; assay type: functional; conditions: UACC-257, 48 h, read-out: Activity
786-0 [6] = test: Growth inhibition of human 786-0 cells assessed as cell growth at 100 uM incubated for 48 hrs by sulforhodamine B assay relative to control; assay type: functional; conditions: 786-0, 48 h, read-out: Activity
SF-295 = test: Growth inhibition of human SF295 cells assessed as cell growth at 0.1 uM incubated for 48 hrs by sulforhodamine B assay relative to control; assay type: functional; conditions: SF-295, 48 h, read-out: Activity
SN12C = test: Growth inhibition of human SN12C cells incubated for 48 hrs by sulforhodamine B assay; assay type: functional, cell-based
SNB-75 = test: Growth inhibition of human SNB75 cells assessed as cell growth at 0.01 uM incubated for 48 hrs by sulforhodamine B assay relative to control; assay type: functional; conditions: SNB-75, 48 h, read-out: Activity
NCI/ADR-RES = test: Growth inhibition of human NCI/ADR-RES cells assessed as cell growth at 100 uM incubated for 48 hrs by sulforhodamine B assay relative to control; assay type: functional; conditions: read-out: Activity
LOX IMVI = test: Growth inhibition of human LOXIMVI cells assessed as cell growth at 0.1 uM incubated for 48 hrs by sulforhodamine B assay relative to control; assay type: functional; conditions: read-out: Activity
NCI-H522 = test: Growth inhibition of human NCI-H522 cells incubated for 48 hrs by sulforhodamine B assay; assay type: functional, cell-based; conditions: NCI-H522, 48 h
U-251 = test: Growth inhibition of human U251 cells incubated for 48 hrs by sulforhodamine B assay; assay type: functional, cell-based; conditions: U-251, 48 h
HCT-15 = test: Growth inhibition of human HCT15 cells incubated for 48 hrs by sulforhodamine B assay; assay type: functional, cell-based; conditions: HCT-15, 48 h
HT-29 [7] = test: Growth inhibition of human HT-29 cells assessed as cell growth at 10 uM incubated for 48 hrs by sulforhodamine B assay relative to control; assay type: functional; conditions: HT-29, 48 h, read-out: Activity
RPMI-8226 = test: Growth inhibition of human RPMI8226 cells incubated for 48 hrs by sulforhodamine B assay; assay type: functional, cell-based; conditions: RPMI-8226, 48 h
[8] = read-out: LC50 (the source's name)
[9] = read-out: pLC50 (the source's name) (converted)

Compound `COc1cc(Cl)cc(-c2nn(-c3cccc(NC(=O)c4ccc(N5CCOCC5)c(C(F)(F)F)c4)c3)cc2-c2ccncc2)c1` has a growth at 100 µM (SW-620) of 22%, a growth at 100 µM (HT-29 [1]) of -17% and a growth at 0.1 µM (HCC 2998 [2]) of 94%. It also gave a growth at 0.01 µM (786-0 [3]) of 96%, a growth at 100 µM (PC-3) of 19% and a growth at 100 µM (ACHN) of 28%. For the same compound, the growth at 0.1 µM (NCI-H23) was 90%, the growth at 0.1 µM (A498) was 85% and the GI50 (HCC 2998 [4]; read-out: GI50) was 5.06 µM. It also gave a CC50 (HCC 2998 [4]; [8]) of over 100 µM, a TGI (HCC 2998 [4]; read-out: TGI) of 74.7 µM and a GI50 (HCC 2998 [4]; read-out: pGI50 (converted)) of 6.03 µM. It also gave a CC50 (HCC 2998 [4]; [9]) of over 100 µM, a TGI (HCC 2998 [4]; read-out: pTGI (converted)) of 74.1 µM and a growth at 1 µM (786-0 [5]) of 74%. It also gave a growth at 1 µM (SK-MEL-5) of 50%, a growth at 0.1 µM (SK-OV-3) of 102% and a growth at 100 µM (COLO 205) of 38%. It also gave a growth at 1 µM (Malme-3M) of 58%, an IC50 (UACC-62) of 9.1 µM and a GI50 (UACC-62; read-out: GI50) of 9.1 µM. For the same compound, the CC50 (UACC-62; [8]) was over 100 µM, the TGI (UACC-62; read-out: TGI) was over 100 µM and the GI50 (UACC-62; read-out: pGI50 (converted)) was 9.12 µM. It also gave a CC50 (UACC-62; [9]) of over 100 µM, a TGI (UACC-62; read-out: pTGI (converted)) of over 100 µM and a GI50 (SF-268; read-out: GI50) of over 100 µM. It also gave a CC50 (SF-268; [8]) of over 100 µM, a TGI (SF-268; read-out: TGI) of over 100 µM and a GI50 (SF-268; read-out: pGI50 (converted)) of over 100 µM. The CC50 (SF-268; [9]) was over 100 µM, the TGI (SF-268; read-out: pTGI (converted)) was over 100 µM and the growth at 100 µM (UACC-257) was -18%. For the same compound, the growth at 100 µM (786-0 [6]) was -30%, the growth at 0.1 µM (SF-295) was 94% and the GI50 (SN12C; read-out: GI50) was over 100 µM. The LC50 (SN12C; read-out: LC50) was over 100 µM, the TGI (SN12C; read-out: TGI) was over 100 µM and the GI50 (SN12C; read-out: pGI50 (converted)) was over 100 µM. It also gave an LC50 (SN12C; read-out: pLC50 (converted)) of over 100 µM, a TGI (SN12C; read-out: pTGI (converted)) of over 100 µM and a growth at 0.01 µM (SNB-75) of 58%. The growth at 100 µM (NCI/ADR-RES) was 30%, the growth at 0.1 µM (LOX IMVI) was 95% and the GI50 (NCI-H522; read-out: GI50) was 4.72 µM. The CC50 (NCI-H522; [8]) was over 100 µM, the TGI (NCI-H522; read-out: TGI) was over 100 µM and the GI50 (NCI-H522; read-out: pGI50 (converted)) was 4.68 µM. It also gave a CC50 (NCI-H522; [9]) of over 100 µM, a TGI (NCI-H522; read-out: pTGI (converted)) of over 100 µM and an IC50 (U-251) of 5.03 µM. The GI50 (U-251; read-out: GI50) was 5.03 µM, the CC50 (U-251; [8]) was over 100 µM and the TGI (U-251; read-out: TGI) was over 100 µM. For the same compound, the GI50 (U-251; read-out: pGI50 (converted)) was 5.01 µM, the CC50 (U-251; [9]) was over 100 µM and the TGI (U-251; read-out: pTGI (converted)) was over 100 µM. It also gave a GI50 (HCT-15; read-out: GI50) of 3.25 µM, a CC50 (HCT-15; [8]) of over 100 µM and a TGI (HCT-15; read-out: TGI) of over 100 µM. The GI50 (HCT-15; read-out: pGI50 (converted)) was 3.24 µM, the CC50 (HCT-15; [9]) was over 100 µM and the TGI (HCT-15; read-out: pTGI (converted)) was over 100 µM. For the same compound, the growth at 10 µM (HT-29 [7]) was 21.2%, the IC50 (RPMI-8226) was 1.5 µM and the GI50 (RPMI-8226; read-out: GI50) was 1.5 µM. For the same compound, the CC50 (RPMI-8226; [8]) was over 100 µM, the TGI (RPMI-8226; read-out: TGI) was over 100 µM and the GI50 (RPMI-8226; read-out: pGI50 (converted)) was 1.51 µM. For the same compound, the CC50 (RPMI-8226; [9]) was over 100 µM and the TGI (RPMI-8226; read-out: pTGI (converted)) was over 100 µM.
